Values of other authors in PubChem BioAssay AID1259409 (Chemical Carcinogenesis Research Information System (CCRIS), 2018).

Tested on: rodent chemically induced tumor inhibition, incidence and multiplicity
Test: CCRIS tumor inhibitor studies
Conditions: Carcinogen: N-METHYL-N-NITROSOUREA, 684-93-5, Route [Inhibitor]: ORAL, Species: RAT, Promoter: NONE USED

## CC1=C(/C=C/C(C)=C/C=C/C(C)=C/C(=O)Nc2ccc(O)cc2)C(C)(C)CCC1
Dose [Inhibitor]: 0, 782 MG/KG OF GRAIN-BASED WAYNE DIET FOR DURATION OF STUDY BEGINNING 7 D POST CARCINOGEN DOSE (STUDY DURATION: 25 WK), Strain/Sex: F344/FEMALE, Target Tissue: Type of Lesion: MAMMARY GLAND: TUMOR, Dose [Carcinogen]: 45 MG/KG BW ONCE AT 50 D OF AGE
  tumour outcome (control, treated, inhibition, significance): 9/25 (36%), 6/25 (24%), 33%, not significant
Dose [Inhibitor]: 0, 782 MG/KG OF GRAIN-BASED WAYNE DIET FOR DURATION OF STUDY BEGINNING 7 D PRIOR TO CARCINOGEN DOSE (STUDY DURATION: 26, Strain/Sex: F344/FEMALE, Target Tissue: Type of Lesion: MAMMARY GLAND: TUMOR, Dose [Carcinogen]: 45 MG/KG BW ONCE AT 50 D OF AGE
  tumour outcome (control, treated, inhibition, significance): 9/25 (36%), 5/25 (20%), 44%, not significant
Dose [Inhibitor]: 0, 786 MG/KG IN DIET FOR 26 WK BEGINNING 4 WK POST CARCINOGEN DOSE (STUDY DURATION: 31 WK), Strain/Sex: SPRAGUE-DAWLEY/FEMALE, Target Tissue: Type of Lesion: MAMMARY GLAND: ADENOCARCINOMA, Dose [Carcinogen]: 50 MG/KG ONCE
  tumour outcome (control, treated, inhibition, significance): 84%, 74%, 12%, not significant
Dose [Inhibitor]: 0, 786 MG/KG IN DIET FOR 31 WK BEGINNING 1 WK PRIOR TO CARCINOGEN DOSE (STUDY DURATION: 31 WK), Strain/Sex: SPRAGUE-DAWLEY/FEMALE, Target Tissue: Type of Lesion: MAMMARY GLAND: ADENOCARCINOMA, Dose [Carcinogen]: 50 MG/KG ONCE
  tumour outcome (control, treated, inhibition, significance): 84%, 71%, 15%, not significant
Dose [Inhibitor]: 0, 1173 MG/KG DIET BEGINNING AFTER THE SURGICAL REMOVAL OF THE FIRST PALPABLE TUMOR (STUDY DURATION: LIFETIME), Strain/Sex: SPRAGUE-DAWLEY/FEMALE, Target Tissue: Type of Lesion: MAMMARY GLAND: TUMOR, Dose [Carcinogen]: 35 MG/KG ONCE AT 50 DAYS OF AGE
  tumour outcome (control, treated, inhibition, significance): 93%, 88%, 5%, not calculated
Dose [Inhibitor]: 1 MMOL/KG DIET DAILY STARTING 3 D AFTER LAST CARCINOGEN DOSE THROUGH END OF STUDY (STUDY DURATION: 129 D), Strain/Sex: SPRAGUE-DAWLEY/FEMALE, Target Tissue: Type of Lesion: MAMMARY GLAND: TUMOR, Dose [Carcinogen]: 50 MG/KG BW AT BOTH 50 AND 57 D OF AGE
  tumour outcome (control, treated, inhibition, significance): 17/17 (100%), 12/15 (80%), 20%, not significant
Dose [Inhibitor]: 1 MMOL/KG DIET DAILY STARTING 3 D AFTER LAST CARCINOGEN DOSE THROUGH END OF STUDY (STUDY DURATION: 182 D), Strain/Sex: SPRAGUE-DAWLEY/FEMALE, Target Tissue: Type of Lesion: MAMMARY GLAND: TUMOR, Dose [Carcinogen]: 15 MG/KG BW AT BOTH 50 AND 57 D OF AGE
  tumour outcome (control, treated, inhibition, significance): 12/40 (30%), 12/40 (30%), 0%, not significant
Dose [Inhibitor]: 2 MMOL/KG DIET DAILY FROM 2 D PRIOR THROUGH 12 WK AFTER CARCINOGEN DOSE FOLLOWED BY 16 WK OBSERVATION PERIOD (STUDY DURA, Strain/Sex: SPRAGUE-DAWLEY/FEMALE, Target Tissue: Type of Lesion: MAMMARY GLAND: TUMOR, Dose [Carcinogen]: 25 MG/KG BW ONCE
  tumour outcome (control, treated, inhibition, significance): 18/21 (86%), 15/30 (50%), 42%, p 0.027
Dose [Inhibitor]: 2 MMOL/KG DIET DAILY FROM 2 D THROUGH 17 WK AFTER CARCINOGEN DOSE FOLLOWED BY 11 WK OBSERVATION PERIOD (STUDY DURATION:, Strain/Sex: SPRAGUE-DAWLEY/FEMALE, Target Tissue: Type of Lesion: MAMMARY GLAND: TUMOR, Dose [Carcinogen]: 25 MG/KG BW ONCE
  tumour outcome (control, treated, inhibition, significance): 18/21 (86%), 18/30 (60%), 30%, not significant
Dose [Inhibitor]: 2 MMOL/KG DIET DAILY STARTING 3 D AFTER LAST CARCINOGEN DOSE THROUGH END OF STUDY (STUDY DURATION: 129 D), Strain/Sex: SPRAGUE-DAWLEY/FEMALE, Target Tissue: Type of Lesion: MAMMARY GLAND: TUMOR, Dose [Carcinogen]: 50 MG/KG BW AT BOTH 50 AND 57 D OF AGE
  tumour outcome (control, treated, inhibition, significance): 17/17 (100%), 11/17 (65%), 35%, p<0.01
Dose [Inhibitor]: 2 MMOL/KG DIET DAILY STARTING 3 D AFTER LAST CARCINOGEN DOSE THROUGH END OF STUDY (STUDY DURATION: 182 D), Strain/Sex: SPRAGUE-DAWLEY/FEMALE, Target Tissue: Type of Lesion: MAMMARY GLAND: TUMOR, Dose [Carcinogen]: 15 MG/KG BW AT BOTH 50 AND 57 D OF AGE
  tumour outcome (control, treated, inhibition, significance): 12/40 (30%), 6/40 (15%), 50%, not significant
Dose [Inhibitor]: 2 MMOL/KG DIET DAILY STARTING 12 D AFTER CARCINOGEN TREATMENT THROUGH ABOUT 8 MO AFTER CARCINOGEN DOSE (STUDY DURATION:, Strain/Sex: F344/MALE, Target Tissue: Type of Lesion: COLON: ADENOCARCINOMA, Dose [Carcinogen]: 2.5 MG 1/WK FOR 2 WK
  tumour outcome (control, treated, inhibition, significance): 5/39 (13%), 3/30 (10%), 23%, not significant
